One assay has as its target T1, JAK3 (Homo sapiens, UniProt P52333).
T1 sequence (P52333 1-1124): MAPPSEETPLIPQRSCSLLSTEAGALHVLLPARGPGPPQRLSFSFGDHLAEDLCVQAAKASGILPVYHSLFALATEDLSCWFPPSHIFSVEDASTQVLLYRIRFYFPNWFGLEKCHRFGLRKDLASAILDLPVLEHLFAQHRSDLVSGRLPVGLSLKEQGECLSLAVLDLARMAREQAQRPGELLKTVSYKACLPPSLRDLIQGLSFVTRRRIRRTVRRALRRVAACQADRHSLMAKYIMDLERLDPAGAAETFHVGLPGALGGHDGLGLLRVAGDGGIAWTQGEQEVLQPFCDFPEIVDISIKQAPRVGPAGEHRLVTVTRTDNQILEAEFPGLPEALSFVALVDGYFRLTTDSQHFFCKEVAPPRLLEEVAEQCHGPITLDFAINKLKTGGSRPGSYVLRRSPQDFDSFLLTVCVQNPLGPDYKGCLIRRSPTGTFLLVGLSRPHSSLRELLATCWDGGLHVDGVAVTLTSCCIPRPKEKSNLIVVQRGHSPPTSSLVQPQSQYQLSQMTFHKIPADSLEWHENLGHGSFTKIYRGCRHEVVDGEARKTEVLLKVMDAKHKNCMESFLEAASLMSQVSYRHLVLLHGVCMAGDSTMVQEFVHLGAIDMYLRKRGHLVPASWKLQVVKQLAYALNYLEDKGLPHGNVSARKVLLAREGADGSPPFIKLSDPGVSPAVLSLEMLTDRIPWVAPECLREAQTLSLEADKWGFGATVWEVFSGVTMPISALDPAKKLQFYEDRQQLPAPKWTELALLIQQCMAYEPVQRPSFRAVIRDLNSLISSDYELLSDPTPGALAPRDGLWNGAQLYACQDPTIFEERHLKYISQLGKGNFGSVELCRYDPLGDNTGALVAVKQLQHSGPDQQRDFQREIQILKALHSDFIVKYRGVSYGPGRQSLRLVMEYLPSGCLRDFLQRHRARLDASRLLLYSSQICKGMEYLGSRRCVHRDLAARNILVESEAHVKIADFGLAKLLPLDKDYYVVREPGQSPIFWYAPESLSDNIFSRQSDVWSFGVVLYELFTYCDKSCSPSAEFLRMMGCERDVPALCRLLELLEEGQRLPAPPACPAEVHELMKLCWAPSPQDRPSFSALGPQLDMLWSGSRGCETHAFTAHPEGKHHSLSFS
The experiment in a line: biochemical.

Another assay addresses Aurora-1 (Aurora B) (Homo sapiens, UniProt Q96GD4). The experiment in a line: Aurora-1 (Aurora B) inhibition assay (radiometric). The format is biochemical. Conditions: read-out: Aurora B kinase Ki value. Put shortly: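 Radiometric ^33P incorporation into peptide substrate, with [γ-^33P]-ATP at 800 μM final, in 25 mM HEPES pH 7.5, 10 mM MgCl2, 0.1% BSA, 10% glycerol. Compound preincubated with enzyme for 10 min at 25° C, reaction run 3 h, then captured on phosphocellulose. Ki from initial rates by non-linear regression after background subtraction.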

A further assay deals with T2, Aurora-2 (Aurora A) (Homo sapiens, UniProt O14965).
T2 sequence (O14965 1-403): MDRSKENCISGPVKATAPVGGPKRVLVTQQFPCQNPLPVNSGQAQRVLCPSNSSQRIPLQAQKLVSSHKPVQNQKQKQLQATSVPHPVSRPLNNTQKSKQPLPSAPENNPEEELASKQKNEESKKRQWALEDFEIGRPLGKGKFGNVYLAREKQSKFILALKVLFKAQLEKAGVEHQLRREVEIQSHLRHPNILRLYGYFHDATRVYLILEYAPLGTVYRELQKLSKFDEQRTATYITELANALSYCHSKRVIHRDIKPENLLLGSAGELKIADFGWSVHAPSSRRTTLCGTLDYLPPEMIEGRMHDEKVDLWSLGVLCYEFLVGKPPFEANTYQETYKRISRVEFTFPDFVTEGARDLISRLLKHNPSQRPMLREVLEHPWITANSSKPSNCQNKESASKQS
Kind of assay: Aurora-2 (Aurora A) inhibition assay, coupled enzyme. In kind it is biochemical. Conditions: read-out: Aurora A kinase Ki value. Put shortly:
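Coupled pyruvate kinase/lactate dehydrogenase assay with NADH in pH 7.5 Hepes containing MgCl2, DTT and NaCl, using 40 nM Aurora-2 at 30 °C. After a 10 min preincubation, enzyme addition started the reaction, and initial rates were taken over 10 min. IC50 and Ki came from non-linear regression.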

pKi: −log10 of the molar value. Where two headings read alike, the source gives them in different places.

Sequence of Aurora-1 (Aurora B) (Q96GD4 whole entry): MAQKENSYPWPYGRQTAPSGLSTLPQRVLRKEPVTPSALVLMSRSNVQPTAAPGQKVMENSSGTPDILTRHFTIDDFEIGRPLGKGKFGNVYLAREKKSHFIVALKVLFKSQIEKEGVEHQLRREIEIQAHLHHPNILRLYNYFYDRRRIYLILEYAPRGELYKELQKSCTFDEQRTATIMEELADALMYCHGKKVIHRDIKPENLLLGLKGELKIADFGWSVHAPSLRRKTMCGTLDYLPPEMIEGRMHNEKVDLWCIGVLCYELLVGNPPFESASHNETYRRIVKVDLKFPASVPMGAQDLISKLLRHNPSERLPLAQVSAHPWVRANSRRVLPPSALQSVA

As for `CC(C)(C)c1cc(Nc2cc(N3CCC3)nc(Sc3ccc(NC(=O)c4ccccc4Cl)cc3)n2)n[nH]1` [Compound 69], the pKi (as a rule, −log10 of the Ki, conventionally taken in molar units) was 5.70 to 6.30 on JAK3 (read-out: JAK3 Ki value) and 5.70 to 7.30 at Aurora-1 (Aurora B).

On to `CCC(=O)Nc1ccc(Sc2nc(Nc3cc(C)n[nH]3)cc(N3CC(OC)(C(C)(C)C)C3)n2)cc1` [Compound 90], for which the pKi at JAK3 was 6.30 to 8.00; at Aurora-2 (Aurora A), not below 9.00; on Aurora-1 (Aurora B), not below 8.00.

In the case of `COCc1cc(Nc2cc(N3CCC3)nc(Sc3ccc(NC(=O)c4ccccc4Cl)cc3)n2)n[nH]1` [Compound 82], the figures for the pKi on JAK3 (read-out: JAK3 Ki value) and at Aurora-1 (Aurora B) were 5.70 to 6.30 and 5.70 to 7.30, respectively.

Take `Cc1cc(Nc2cc(N3CC(O)(C4CC4)C3)nc(Sc3ccc4nc(C(F)(F)F)ccc4c3)n2)[nH]n1` [Compound 186]: the negative-log Ki (pKi) at JAK3 (read-out: JAK3 Ki value) was 6.30 to 8.00; at Aurora-2 (Aurora A) it was not below 9.00; at Aurora-1 (Aurora B), not below 8.00.

As for `Cc1cc(Nc2nc(Sc3ccc(NC(=O)CC(F)(F)F)cc3)nc(N3CC(F)(C4CC4)C3)c2F)[nH]n1` [Compound 178], the values for the pKi at JAK3, at Aurora-2 (Aurora A) and on Aurora-1 (Aurora B) were 5.70 to 6.30, not below 9.00 and 7.30 to 8.00, respectively.

For the molecule `Cc1cc(Nc2cc(N3CC(N4CC[C@H](F)C4)C3)nc(Sc3ccc(NC(=O)CC(F)(F)F)cc3)n2)[nH]n1` [Compound 185], the pKi at JAK3 (read-out: JAK3 Ki value) is not below 8.00; at Aurora-2 (Aurora A), not below 9.00; at Aurora-1 (Aurora B) it was not below 8.00.

Regarding `COC1(C)CN(c2cc(Nc3cc(C)n[nH]3)nc(Sc3ccc(NC(=O)c4ccccc4Cl)cc3)n2)C1` [Compound 51], the negative logarithm of the Ki (pKi) is 6.30 to 8.00 on JAK3, not below 9.00 at Aurora-2 (Aurora A) and not below 8.00 on Aurora-1 (Aurora B).

Turning to `Cc1cc(Nc2cc(N3CC(F)(C4CC4)C3)nc(Sc3ccc(NC(=O)CN(C)C)cc3)n2)[nH]n1` [Compound 152], the pKi at JAK3 was 5.70 to 6.30; at Aurora-2 (Aurora A), not below 9.00; at Aurora-1 (Aurora B), not below 8.00.

Regarding `Cc1cc(Nc2cc(N3CCC3)nc(Sc3ccc(NC(=O)c4cnccc4C(F)(F)F)cc3)n2)[nH]n1` [Compound 59], the pKi on Aurora-1 (Aurora B) is not below 8.00.

As for `Cc1cc(Nc2cc(N3CC(O)(C4CC4)C3)nc(Sc3ccc4nc(C(F)(F)F)n(C)c4c3)n2)[nH]n1` [Compound 155], the pKi was 6.30 to 8.00 at JAK3, not below 9.00 on Aurora-2 (Aurora A) and not below 8.00 at Aurora-1 (Aurora B).

Turning to `Cc1cc(Nc2cc(N3CC(C)(O)C3)nc(Sc3ccc(NC(=O)c4ccccc4Cl)cc3)n2)[nH]n1` [Compound 50], the pKi is not below 8.00 on JAK3 (read-out: JAK3 Ki value), not below 9.00 on Aurora-2 (Aurora A) and not below 8.00 on Aurora-1 (Aurora B).

As to `Cc1cc(Nc2cc(N3CC(F)(C4CC4)C3)nc(Sc3cnc4ccccc4c3)n2)[nH]n1` [Compound 206], the pKi at JAK3 was not below 8.00; on Aurora-2 (Aurora A) it was not below 9.00; at Aurora-1 (Aurora B) it was 7.30 to 8.00.

For `Cc1cc(Nc2cc(N3CCC3)nc(Sc3ccc(NC(=O)Cc4ccccc4Cl)cc3)n2)[nH]n1` [Compound 57], the pKi on JAK3 was 6.30 to 8.00; on Aurora-2 (Aurora A), not below 9.00; at Aurora-1 (Aurora B), not below 8.00.

In the case of `Cc1cc(Nc2cc(N3CC(OC(C)C)C3)nc(Sc3ccc(NC(=O)c4ccccc4Cl)cc3)n2)n[nH]1` [Compound 38], the pKi is 6.30 to 8.00 at JAK3, not below 9.00 on Aurora-2 (Aurora A) and not below 8.00 at Aurora-1 (Aurora B).

In the case of `Cc1cc(Nc2cc(N3CC(F)(C4CC4)C3)nc(Sc3ccc(NC(=O)C4(C)CC4)cc3)n2)[nH]n1` [Compound 203], the pKi is 5.70 to 6.30 at JAK3, not below 9.00 at Aurora-2 (Aurora A) and 5.70 to 7.30 on Aurora-1 (Aurora B).

Consider `Cc1cc(Nc2cc(N3CCC3)nc(Sc3ccc(NC(=O)c4ccc(-c5ccccc5)cc4Cl)cc3)n2)[nH]n1` [Compound 83], for which the results for the pKi on JAK3, on Aurora-2 (Aurora A) and on Aurora-1 (Aurora B) were 6.30 to 8.00, not below 9.00 and not below 8.00, respectively.

For the molecule `Cc1cc(Nc2cc(N3CC(OC(=O)CN(C)C)(C4CC4)C3)nc(Sc3ccc(NC(=O)C4CC4)cc3)n2)n[nH]1` [Compound 119], the pKi was 6.30 to 8.00 on JAK3, not below 9.00 at Aurora-2 (Aurora A) and not below 8.00 at Aurora-1 (Aurora B).

Regarding `CCC(=O)Nc1ccc(Sc2nc(Nc3cc(C)n[nH]3)cc(N3CC4(C3)OCC4(C)C)n2)cc1` [Compound 92], the pKi was not below 8.00 at JAK3, not below 9.00 at Aurora-2 (Aurora A) and 7.30 to 8.00 on Aurora-1 (Aurora B).
